The test system of series [1] is male beagle dogs. Conditions: intravenous, 5 mg/mL in 20% HPβCD, Dog1001 and Dog1002.
Description: The mixture was vortexed then stirred at room temperature for 93 minutes forming a clear yellow solution at a concentration of 5 mg/mL for intravenous dosing. The intravenous dose solution was sterile-filtered using a Millex GV PVDF 0.22 μm filter (Millipore) prior to dosing.
Using clean technique, an aliquot of the 5 mg/mL Group 1 formulation (2.8 mL) was combined with 20% HPβCD (4.2 mL), and vortexed to form a clear yellow solution at a concentration of 2 mg/mL for intravenous dosing.
A total of fifteen male beagle dogs (plus one spare animal) were selected from the Test Facility's colony of non-naïve animals. The animals were assigned to the study based on acceptable health as determined by a Test Facility veterinarian following a pre-study health status check. The pre-study health status check included a physical exam, serum chemistry and hematology evaluations. The animals were placed into five groups of three animals per group. All animals were fasted overnight prior to dose administration.
Each animal in Group 1 received the prepared test article as a 30-60 second intravenous injection by way of a temporary percutaneous catheter placed in a peripheral vein. Immediately after each intravenous dose, the catheter was flushed with 3 mL of saline prior to removal. […]
The nature of series [2]: MDA7 GB/IB non-sink microcentrifuge dissolution test. Type of series: physicochemical. The method, then:
In the first round of testing, experiments were carried out using crystalline API, 25% MDA7: HPMCAS-H, 25% MDA7: Eudragit L100, 25/65/10%:HPMCAS-M:TPGS, 25/65/10% MDA7:PVP VA64:TPGS, and 40% MDA7: HPMCAS-M. The results of these experiments are shown in FIG. 1, and Table 1 below.

The nature of series [3]: Microcentrifuge dissolution test, second round of SDD testing. It is filed as physicochemical. Conditions: 400 μgA/mL in 0.5 wt % SIF in PBS, pH 6.5, 37° C. The method, then:
In the second round of testing, experiments were carried out using crystalline API (active pharmaceutical ingredient; MDA7), 10% MDA7 in HPMCAS-M SDD, 25% MDA7 in HPMCAS-M SDD, 25% MDA7 in HPMCAS-L SDD, and 25% MDA7:PVP VA64 SDD. The test conditions were 400 μgA/mL in 0.5 wt % SIF in PBS, pH 6.5, 37° C.

Series [4] deals with mice. Conditions: cited from earlier work.

Regarding `CC1(Cc2ccccc2)COc2cc(C(=O)N3CCCCC3)ccc21` (centres unmarked) [Crystalline API, 3-benzyl-3-methyl-2,3-dihydrobenzofuran-6-carboxylic acid-piperidine amide], the “clinical effects observed following dosing” value in series [1] was “adverse clinical effects”. Besides, in series [2], the AUC90 is listed as 2,360 min*μg/mL, the C90 is 31 µg/mL, the C1200 is 31 µg/mL and the Cmax90 stood at 31 µg/mL. In series [2], this molecule showed a Ultra90 of 31 µg/mL and a Ultra1200 of 31 µg/mL. In addition, in series [3], the AUC90 is 2,010 min*μg/mL, the C90 is 24 µg/mL, the C1200 came out at 28 µg/mL and the Cmax90 worked out at 27 µg/mL. In series [3], this molecule came in with a Ultra90 of 20 µg/mL and a Ultra1200 of 24 µg/mL.

With `Cc1c(C(=O)NN2CCCCC2)nn(-c2ccc(Cl)cc2Cl)c1-c1ccc(Cl)cc1` [SR141716A], in series [4], the “effect on food intake” value is “reduces food intake”.

Values taken from patent US10526318B2, “Oral cannabinoid receptor modulator formulations” (THE CLEVELAND CLINIC FOUNDATION, priority 2018, dated 2020).
